Experimental data taken from ChEMBL document CHEMBL5338706, “Discovery of a potent and selective proteolysis targeting chimera (PROTAC) degrader of NSD3 histone methyltransferase” (Eur J Med Chem, 2022).
The source made the active and inactive calls. The calls are words filed in the database; no cut-off is given here.

Columns and labels:
[1] = Downregulation of CDC25A level in human NCI-H1703 cells at […] by measuring fold change by Western blot analysis relative to control; assay type: functional; conditions: dose 7.5 µM
[2] = Downregulation of Cyclin D1 level in human NCI-H520 cells at 5 uM by measuring fold change by Western blot analysis relative to control; assay type: functional
[3] = system: NCI-H1703; test: Induction of apoptosis in human NCI-H1703 cells assessed as late apoptotic cells at […] measured after 72 hrs by PI/Annexin-V staining based flow cytometry analysis (reference value: 3.00% ); assay type: functional; conditions: dose 7.5 µM
[4] = molecular target: T1, Histone-lysine N-methyltransferase NSD2 (Homo sapiens) (UniProt O96028); test: Induction of NSD2 degradation in human NCI-H1703 cells at 3 to […] incubated for 72 hrs by Western blot analysis; assay type: cell-based; conditions: dose 3-7.5 µM
T1 sequence (whole entry): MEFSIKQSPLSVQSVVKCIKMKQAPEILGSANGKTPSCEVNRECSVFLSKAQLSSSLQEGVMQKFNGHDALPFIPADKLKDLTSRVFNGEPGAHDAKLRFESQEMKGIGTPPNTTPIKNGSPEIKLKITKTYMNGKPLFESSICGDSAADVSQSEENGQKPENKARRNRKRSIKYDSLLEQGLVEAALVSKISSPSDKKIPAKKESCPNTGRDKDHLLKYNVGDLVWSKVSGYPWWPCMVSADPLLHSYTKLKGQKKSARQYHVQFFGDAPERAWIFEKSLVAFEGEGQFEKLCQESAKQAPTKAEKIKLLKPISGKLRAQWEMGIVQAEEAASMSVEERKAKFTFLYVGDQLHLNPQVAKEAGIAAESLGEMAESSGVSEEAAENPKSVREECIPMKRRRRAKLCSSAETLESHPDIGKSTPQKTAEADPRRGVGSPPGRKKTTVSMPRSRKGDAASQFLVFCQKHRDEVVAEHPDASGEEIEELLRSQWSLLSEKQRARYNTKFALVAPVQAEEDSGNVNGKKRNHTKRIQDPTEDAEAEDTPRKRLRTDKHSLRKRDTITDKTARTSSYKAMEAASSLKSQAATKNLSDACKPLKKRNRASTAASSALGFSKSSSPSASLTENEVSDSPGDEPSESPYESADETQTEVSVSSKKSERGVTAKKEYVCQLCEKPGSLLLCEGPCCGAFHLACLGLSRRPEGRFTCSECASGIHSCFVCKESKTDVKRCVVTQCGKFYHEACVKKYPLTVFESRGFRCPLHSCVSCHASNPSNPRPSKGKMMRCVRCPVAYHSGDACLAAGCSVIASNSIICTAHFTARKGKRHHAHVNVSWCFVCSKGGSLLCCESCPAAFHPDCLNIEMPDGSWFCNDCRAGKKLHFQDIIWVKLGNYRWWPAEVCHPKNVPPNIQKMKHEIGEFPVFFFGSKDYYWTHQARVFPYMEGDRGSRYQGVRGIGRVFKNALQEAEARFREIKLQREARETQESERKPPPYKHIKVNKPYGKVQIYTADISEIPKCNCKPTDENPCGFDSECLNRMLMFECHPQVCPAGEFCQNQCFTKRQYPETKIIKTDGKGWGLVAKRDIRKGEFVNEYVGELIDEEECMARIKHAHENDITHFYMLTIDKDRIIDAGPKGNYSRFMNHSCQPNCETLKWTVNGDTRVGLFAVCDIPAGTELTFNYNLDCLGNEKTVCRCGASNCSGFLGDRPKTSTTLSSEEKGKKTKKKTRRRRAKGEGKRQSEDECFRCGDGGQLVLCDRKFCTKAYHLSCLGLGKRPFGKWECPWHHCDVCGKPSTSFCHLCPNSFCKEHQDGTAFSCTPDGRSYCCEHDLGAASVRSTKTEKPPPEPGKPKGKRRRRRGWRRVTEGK

[5] = system: NCI-H520; test: Induction of apoptosis in human NCI-H520 cells assessed as decrease in MCL-1 protein expression at 5 to 10 uM by Western blot analysis; assay type: functional, cell-based; conditions: dose 5-10 µM

With `Cc1cc(CNCCCCCCCCCCC(=O)N[C@H](C(=O)N2C[C@H](O)C[C@H]2C(=O)N[C@@H](C)c2ccc(-c3scnc3C)cc2)C(C)(C)C)cc(C)c1-c1ncn(C)c1-c1ccnc2cc(F)ccc12` the “fold change (FC)” value [1] was 0.77, the “fold change (FC)” value [2] was 0.8 and the Activity [3] was 26.6%. The Activity [4] was “inactive” and the Activity [5] was “Active”.
